Test results reported in patent US9302999B2, “Substituted triazoles as herbicides” (E. I. DU PONT DE NEMOURS AND COMPANY, priority 2012, dated 2016).

Experiments:
Assay type in all cases: in vivo
[1] = system: barnyardgrass (ECHCG, Echinochloa crus-galli); assay: Test G paddy, alone and in combination: barnyardgrass; conditions: evaluated after 14 days
Procedure: (§1) Seeds of smallflower umbrella sedge (CYPDI, Cyperus difformis) and ducksalad (HETLI, Heteranthera limosa) were sown on the soil surface in two separate quadrants of 11 cm tubs filled with steam pasteurized Tama soil. Simultaneously, plantings of barnyardgrass (ECHCG, Echinochloa crus-galli) and japonica rice (ORYSP, Oryza sativa) were established in separate “plug” flats. Plants were grown in a greenhouse using supplemental lighting to maintain a photoperiod of approximately 16 h; daytime and nighttime temperatures were approximately 27-30° C. and 19-22° C., respectively. After 8 days, barnyardgrass plants were transplanted to one of the remaining quadrants of the tub, and the water level was adjusted to a final depth of 3 cm. Herbicide application timing was targeted at the 2.0 to 2.5 leaf stage and the plants were treated with test chemicals formulated in a non-phytotoxic solvent. Treated plants and controls were maintained in a greenhouse for 14 days, after which time all species were compared to controls and visually evaluated. Plant response ratings are summarized in Tables G1 through G3, and are based on a scale of 0 to 100 where 0 is no effect and 100 is complete control. A dash (-) response means no test result.

[2] = system: smallflower umbrella sedge (CYPDI, Cyperus difformis); assay: Test G paddy, alone and in combination: smallflower umbrella sedge; conditions: evaluated after 14 days
Procedure: as §1

[3] = system: ducksalad (HETLI, Heteranthera limosa); assay: Test G paddy, alone and in combination: ducksalad; conditions: evaluated after 14 days
Procedure: as §1

[4] = system: japonica rice (ORYSP, Oryza sativa); assay: Test G paddy, alone and in combination: japonica rice; conditions: evaluated after 14 days
Procedure: as §1

[5] = system: Field Poppy (PAPRH, Papaver rhoeas); assay: Test H post-emergence, alone and in combination: Field Poppy
From the text: (§2) Seeds of plant species selected from wheat (TRZAW, Triticum aestivum), barley (HORBW, Hordeum vulgare), Kochia (KCHSC, Kochia caoparia) blackgrass (ALOMY, Alopecurus myosuroides), canarygrass (PHAMI, Phalaris minor), Italian ryegrass (LOLMU, Lolium multiflorum) common lambsquarter (CHEAL, Chenopodium album), pigweed (AMARE, Amaranthus retroflexus), Common Chickweed (STEME, Stellaria media), Russian thistle (SASKR, Salsola iberica), Wild Buckwheat (POLCO, Polygonum convolvulus), Catchweed Bedstraw (GALAP, Galium aparine), Mustard (SINAR, Sinapisar arvensis), Henbit Deadnettle (LAMAM, Lamium amplexicaule), Wild Radish (RAPRA, Raphanus raphanistrum), Field Poppy (PAPRH, Papaver rhoeas), Field Violet (VIOAR, Viola arvennsis), Scentless Chamomile (MATIN Matricaria inodora) were planted into soil and treated post-emergence with test chemicals formulated in a non-phytotoxic solvent mixture. Plants were grown in a greenhouse using supplemental lighting to maintain a photoperiod of approximately 14 hours; daytime and nighttime temperatures were approximately 23°-29° and 16°-19° Celsius, respectively. Balanced fertilizer was applied through the watering system. Treated plants and controls were maintained in a greenhouse for 20 days, after which time all species were compared to controls and visually evaluated. Plant response ratings were calculated as the mean of three replicates (unless otherwise indicated), are summarized in Table G, and are based on a scale of 0 to 100 where 0 is no effect and 100 is complete control. A dash (-) response means no test result.

[6] = system: Henbit Deadnettle (LAMAM, Lamium amplexicaule); assay: Test H post-emergence, alone and in combination: Henbit Deadnettle
From the text: as §2

[7] = system: wheat (TRZAW, Triticum aestivum); assay: Test H post-emergence, alone and in combination: wheat
From the text: as §2

[8] = system: Kochia (KCHSC, Kochia caoparia); assay: Test H post-emergence, alone and in combination: Kochia
From the text: as §2

[9] = system: Russian thistle (SASKR, Salsola iberica); assay: Test H post-emergence, alone and in combination: Russian thistle
From the text: as §2

[10] = system: canarygrass (PHAMI, Phalaris minor); assay: Test H post-emergence, alone and in combination: canarygrass
From the text: as §2

[11] = system: common lambsquarter (CHEAL, Chenopodium album); assay: Test H post-emergence, alone and in combination: common lambsquarter
From the text: as §2

[12] = system: Common Chickweed (STEME, Stellaria media); assay: Test H post-emergence, alone and in combination: Common Chickweed
From the text: as §2

[13] = system: pigweed (AMARE, Amaranthus retroflexus); assay: Test H post-emergence, alone and in combination: pigweed
From the text: as §2

[14] = system: Italian ryegrass (LOLMU, Lolium multiflorum); assay: Test H post-emergence, alone and in combination: Italian ryegrass
From the text: as §2

[15] = system: Field Violet (VIOAR, Viola arvennsis); assay: Test H post-emergence, alone and in combination: Field Violet
From the text: as §2

[16] = system: blackgrass (ALOMY, Alopecurus myosuroides); assay: Test H post-emergence, alone and in combination: blackgrass
From the text: as §2

[17] = system: Mustard (SINAR, Sinapisar arvensis); assay: Test H post-emergence, alone and in combination: Mustard
From the text: as §2

[18] = system: Wild Radish (RAPRA, Raphanus raphanistrum); assay: Test H post-emergence, alone and in combination: Wild Radish
From the text: as §2

[19] = system: barley (HORBW, Hordeum vulgare); assay: Test H post-emergence, alone and in combination: barley
From the text: as §2

[20] = system: Wild Buckwheat (POLCO, Polygonum convolvulus); assay: Test H post-emergence, alone and in combination: Wild Buckwheat
From the text: as §2

[21] = system: Scentless Chamomile (MATIN Matricaria inodora); assay: Test H post-emergence, alone and in combination: Scentless Chamomile
From the text: as §2

[22] = system: Catchweed Bedstraw (GALAP, Galium aparine); assay: Test H post-emergence, alone and in combination: Catchweed Bedstraw
From the text: as §2

COC(=O)c1ccccc1CS(=O)(=O)NC(=O)Nc1nc(OC)cc(OC)n1 [b2a, bensulfuron-methyl]
ECHCG plant response rating (scale of 0 to 100) ([1]; Rate 16 g/ha): 60
ECHCG plant response rating (scale of 0 to 100) ([1]; Rate 31 g/ha): 68
ECHCG plant response rating (scale of 0 to 100) ([1]; Rate 32 g/ha): 60
ECHCG plant response rating (scale of 0 to 100) ([1]; Rate 62 g/ha): 75
ECHCG plant response rating (scale of 0 to 100) ([1]; Rate 64 g/ha): 68
ECHCG plant response rating (scale of 0 to 100) ([1]; Rate 125 g/ha): 75
CYPDI plant response rating (scale of 0 to 100) ([2]; Rate 16 g/ha): 90
CYPDI plant response rating (scale of 0 to 100) ([2]; Rate 31 g/ha): 90
CYPDI plant response rating (scale of 0 to 100) ([2]; Rate 32 g/ha): 90
CYPDI plant response rating (scale of 0 to 100) ([2]; Rate 62 g/ha): 93
CYPDI plant response rating (scale of 0 to 100) ([2]; Rate 64 g/ha): 90
CYPDI plant response rating (scale of 0 to 100) ([2]; Rate 125 g/ha): 93
HETLI plant response rating (scale of 0 to 100) ([3]; Rate 16 g/ha): 90
HETLI plant response rating (scale of 0 to 100) ([3]; Rate 31 g/ha): 95
HETLI plant response rating (scale of 0 to 100) ([3]; Rate 32 g/ha): 90
HETLI plant response rating (scale of 0 to 100) ([3]; Rate 62 g/ha): 98
HETLI plant response rating (scale of 0 to 100) ([3]; Rate 64 g/ha): 95
HETLI plant response rating (scale of 0 to 100) ([3]; Rate 125 g/ha): 98
ORYSP plant response rating (scale of 0 to 100) ([4]; Rate 16 g/ha): 0
ORYSP plant response rating (scale of 0 to 100) ([4]; Rate 31 g/ha): 0
ORYSP plant response rating (scale of 0 to 100) ([4]; Rate 32 g/ha): 0
ORYSP plant response rating (scale of 0 to 100) ([4]; Rate 62 g/ha): 0
ORYSP plant response rating (scale of 0 to 100) ([4]; Rate 64 g/ha): 0
ORYSP plant response rating (scale of 0 to 100) ([4]; Rate 125 g/ha): 0

COC(=O)c1ccc(C(F)(F)F)nc1S(=O)(=O)NC(=O)Nc1nc(OC)cc(OC)n1 [b2b, flupyrsulfuron-methyl]
PAPRH plant response ([5]; Rate 8): 100
PAPRH plant response ([5]; Rate 16): 90
PAPRH plant response ([5]; Rate 31): 100
PAPRH plant response ([5]; Rate 62): 95
LAMAM plant response ([6]; Rate 8): 90
LAMAM plant response ([6]; Rate 16): 95
LAMAM plant response ([6]; Rate 31): 95
LAMAM plant response ([6]; Rate 62): 90
TRZAW plant response ([7]; Rate 8): 0
TRZAW plant response ([7]; Rate 16): 5
TRZAW plant response ([7]; Rate 31): 5
TRZAW plant response ([7]; Rate 62): 25
KCHSC plant response ([8]; Rate 8): 75
KCHSC plant response ([8]; Rate 16): 100
KCHSC plant response ([8]; Rate 31): 80
KCHSC plant response ([8]; Rate 62): 95
SASKR plant response ([9]; Rate 8): 50
SASKR plant response ([9]; Rate 16): 50
SASKR plant response ([9]; Rate 31): 50
SASKR plant response ([9]; Rate 62): 60
PHAMI plant response ([10]; Rate 8): 40
PHAMI plant response ([10]; Rate 16): 55
PHAMI plant response ([10]; Rate 31): 85
PHAMI plant response ([10]; Rate 62): 90
CHEAL plant response ([11]; Rate 8): 60
CHEAL plant response ([11]; Rate 16): 85
CHEAL plant response ([11]; Rate 31): 75
CHEAL plant response ([11]; Rate 62): 80
STEME plant response ([12]; Rate 8): 90
STEME plant response ([12]; Rate 16): 100
STEME plant response ([12]; Rate 31): 100
STEME plant response ([12]; Rate 62): 100
AMARI plant response ([13]; Rate 8): 100
AMARI plant response ([13]; Rate 16): 100
AMARI plant response ([13]; Rate 31): 100
AMARI plant response ([13]; Rate 62): 100
LOLMU plant response ([14]; Rate 8): 60
LOLMU plant response ([14]; Rate 16): 60
LOLMU plant response ([14]; Rate 31): 65
LOLMU plant response ([14]; Rate 62): 80
VIOAR plant response ([15]; Rate 8): 50
VIOAR plant response ([15]; Rate 16): 75
VIOAR plant response ([15]; Rate 31): 70
VIOAR plant response ([15]; Rate 62): 95
ALOMY plant response ([16]; Rate 8): 100
ALOMY plant response ([16]; Rate 16): 100
ALOMY plant response ([16]; Rate 31): 100
ALOMY plant response ([16]; Rate 62): 100
SINAR plant response ([17]; Rate 8): 100
SINAR plant response ([17]; Rate 16): 95
SINAR plant response ([17]; Rate 31): 100
SINAR plant response ([17]; Rate 62): 100
RAPRA plant response ([18]; Rate 8): 100
RAPRA plant response ([18]; Rate 16): 100
RAPRA plant response ([18]; Rate 31): 100
RAPRA plant response ([18]; Rate 62): 100
HORBW plant response ([19]; Rate 8): 20
HORBW plant response ([19]; Rate 16): 30
HORBW plant response ([19]; Rate 31): 60
HORBW plant response ([19]; Rate 62): 70
POLCO plant response ([20]; Rate 8): 100
POLCO plant response ([20]; Rate 16): 85
POLCO plant response ([20]; Rate 31): 100
POLCO plant response ([20]; Rate 62): 100
MATIN plant response ([21]; Rate 8): 90
MATIN plant response ([21]; Rate 16): 95
MATIN plant response ([21]; Rate 31): 100
MATIN plant response ([21]; Rate 62): 95
GALAP plant response ([22]; Rate 8): 90
GALAP plant response ([22]; Rate 16): 95
GALAP plant response ([22]; Rate 31): 90
GALAP plant response ([22]; Rate 62): 100
